The record followed here is PubChem BioAssay AID624091 (Broad Institute, 2012).

Molecules are shown by their SMILES. Activity calls are given as the source filed them. The rule behind the calls is not given here.

What all share (assay): GSK3 and CDK kinase inhibitor potency, dose response, selectivity assay for GSK3beta inhibitor project, biochemical, selected compounds, dry powder samples (AID 624091)
The target of assay [1] is Cyclin-dependent kinase 1 (Homo sapiens) (UniProt P06493). The conditions noted are these: Carna mobility shift kinase assay, LabChip, panel; CDC2/CycB1.
Sequence of Cyclin-dependent kinase 1 (Homo sapiens) (P06493 whole entry, looked up): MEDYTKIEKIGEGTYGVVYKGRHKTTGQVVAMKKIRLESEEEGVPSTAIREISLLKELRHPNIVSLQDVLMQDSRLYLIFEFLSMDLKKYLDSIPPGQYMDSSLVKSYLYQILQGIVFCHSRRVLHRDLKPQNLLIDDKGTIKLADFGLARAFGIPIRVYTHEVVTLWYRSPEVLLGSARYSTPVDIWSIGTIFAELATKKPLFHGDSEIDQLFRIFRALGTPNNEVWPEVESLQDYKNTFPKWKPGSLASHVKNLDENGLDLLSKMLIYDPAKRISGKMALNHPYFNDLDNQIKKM
Assay [2] has as its target Cyclin-dependent kinase 2 (Homo sapiens) (UniProt P24941). The conditions noted are these: Carna mobility shift kinase assay, LabChip, panel.
Assay [3] deals with Cyclin-dependent kinase 5 (Homo sapiens) (UniProt Q00535). The note with it: Carna mobility shift kinase assay, LabChip, panel; CDK5/p25.
Sequence of Cyclin-dependent kinase 5 (Homo sapiens) (Q00535 whole entry, looked up): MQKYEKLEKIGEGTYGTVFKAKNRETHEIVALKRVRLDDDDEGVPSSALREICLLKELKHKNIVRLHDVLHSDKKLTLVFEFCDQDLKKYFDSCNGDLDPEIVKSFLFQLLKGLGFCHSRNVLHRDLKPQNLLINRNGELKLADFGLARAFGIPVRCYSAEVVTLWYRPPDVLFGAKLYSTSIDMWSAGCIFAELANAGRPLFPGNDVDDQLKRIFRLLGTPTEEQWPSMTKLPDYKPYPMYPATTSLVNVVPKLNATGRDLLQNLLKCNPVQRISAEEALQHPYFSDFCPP
Assay [4] has as its target Glycogen synthase kinase-3 alpha (Homo sapiens) (UniProt P49840). The note with it: Carna mobility shift kinase assay, LabChip, panel; GSK3a.
In assay [5] the target is Glycogen synthase kinase-3 beta (Homo sapiens) (UniProt P49841). The conditions noted are these: Carna mobility shift kinase assay, LabChip, panel; GSK3b.
Sequence of Glycogen synthase kinase-3 beta (Homo sapiens) (P49841 whole entry, looked up): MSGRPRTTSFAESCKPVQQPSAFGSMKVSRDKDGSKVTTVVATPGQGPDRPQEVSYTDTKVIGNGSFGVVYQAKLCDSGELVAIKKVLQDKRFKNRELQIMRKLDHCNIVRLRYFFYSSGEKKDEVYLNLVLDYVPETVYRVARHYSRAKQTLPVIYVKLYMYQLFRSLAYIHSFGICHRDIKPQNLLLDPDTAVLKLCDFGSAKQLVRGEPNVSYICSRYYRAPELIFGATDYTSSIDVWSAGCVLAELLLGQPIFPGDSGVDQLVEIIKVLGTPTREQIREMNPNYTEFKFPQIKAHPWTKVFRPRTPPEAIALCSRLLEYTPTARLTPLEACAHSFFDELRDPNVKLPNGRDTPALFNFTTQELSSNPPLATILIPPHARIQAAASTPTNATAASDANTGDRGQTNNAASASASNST

Sequence of Glycogen synthase kinase-3 alpha (Homo sapiens) (P49840 whole entry, looked up): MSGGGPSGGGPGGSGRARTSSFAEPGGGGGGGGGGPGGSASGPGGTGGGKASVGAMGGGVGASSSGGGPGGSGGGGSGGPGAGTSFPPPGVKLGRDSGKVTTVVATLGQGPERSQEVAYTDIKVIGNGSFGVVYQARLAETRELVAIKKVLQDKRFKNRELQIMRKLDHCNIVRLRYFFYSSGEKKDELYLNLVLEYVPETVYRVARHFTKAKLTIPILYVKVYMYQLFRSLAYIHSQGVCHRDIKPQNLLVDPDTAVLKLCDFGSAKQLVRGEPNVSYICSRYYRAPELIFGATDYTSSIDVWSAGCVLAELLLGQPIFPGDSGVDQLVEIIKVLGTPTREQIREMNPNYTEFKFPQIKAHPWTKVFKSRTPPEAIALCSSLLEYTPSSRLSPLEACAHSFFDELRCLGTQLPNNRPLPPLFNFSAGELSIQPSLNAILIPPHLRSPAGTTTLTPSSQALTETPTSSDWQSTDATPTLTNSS

The term IC50 denotes the concentration that inhibits the measured activity by half. As for `Cc1[nH]nc2c1C(c1ccccc1C(F)(F)F)C1=C(CC(C)(C)CC1=O)N2` (stereo not drawn), the IC50 result in assay [1] and in assay [2] (CDK2/CycA2) was “inactive” in each case. In addition, the IC50 in assay [2] (CDK2/CycE1) was 0.808 µM; in assay [3] it was 0.223 µM; in assay [4], 0.0146 µM; in assay [5], 0.0268 µM.
For `COc1ccccc1[C@H]1C2=C(CC(C)(C)CC2=O)Nc2n[nH]c(C(F)(F)F)c21`, the IC50 in assay [1] is > 10 µM (inactive); in assay [2] (CDK2/CycA2), > 10 µM (inactive); in assay [2] (CDK2/CycE1), > 10 µM (inactive); in assay [4] it was 0.98 µM; in assay [5], 0.613 µM.
In the case of `COc1ccccc1[C@@H]1C2=C(CC(C)(C)CC2=O)Nc2n[nH]c(C(F)(F)F)c21`, the IC50 in assay [1] was > 10 µM (inactive); in assay [4], 0.0132 µM; in assay [5] it was 0.0124 µM. Moreover, the IC50 entry in assay [2] (CDK2/CycA2) and in assay [2] (CDK2/CycE1) was “inactive” each time.
As for `Cc1[nH]nc2c1[C@@H](c1ccccc1C(F)(F)F)C1=C(CC(C)(C)CC1=O)N2`, the IC50 in assay [1] is 0.839 µM; in assay [2] (CDK2/CycA2) it was 0.561 µM; in assay [2] (CDK2/CycE1), 0.427 µM; in assay [3], 0.127 µM; in assay [4] it was 0.00779 µM; in assay [5], 0.0155 µM.
As for `COc1ccccc1C1C2=C(CC(C)(C)CC2=O)Nc2n[nH]c(C(F)(F)F)c21` (stereo not drawn), the IC50 in assay [1] is > 10 µM (inactive); in assay [4], 0.0234 µM; in assay [5], 0.0228 µM. Moreover, the IC50 entry in assay [2] (CDK2/CycA2) and in assay [2] (CDK2/CycE1) was “inactive” throughout.
For the molecule `Cc1[nH]nc2c1[C@H](c1ccccc1C(F)(F)F)C1=C(CC(C)(C)CC1=O)N2`, the IC50 in assay [1], in assay [2] (CDK2/CycA2), in assay [2] (CDK2/CycE1) and in assay [3] was > 10 µM (inactive) in each case. Further, the IC50 result in assay [4] and in assay [5] was “inactive” throughout.
